According to patent US20060046966A1, “Antipicornaviral compounds and compositions, their pharmaceutical uses, and materials for their synthesis” (Agouron Pharmaceuticals, Inc., priority 1998, published 2006):

Columns and labels:
HRV (2) = assay: Antirhinoviral H1-HeLa cell culture assay, HRV serotype 2; assay type: cell-based, human rhinovirus; conditions: Human rhinovirus sp., H1-HeLa, H1-HeLa cells, XTT
Experimental: (§1) In this cell protection assay, the ability of compounds to protect cells against HRV infection was measured by the XTT dye reduction method, which is described in Weislow et al., J. Natl. Cancer Inst. 1989, vol. 81, 577-586.
(§2) H1-HeLa cells were infected with HRV-14 at a multiplicity of infection (m.o.i.) of 0.13 (virus particles/cell) or mock-infected with medium only. Infected or mock-infected cells were resuspended at 8×10^5 cells per mL, and incubated with appropriate concentrations of the compounds to be tested. Two days later, XTT/PMS was added to test plates and the amount of formazan produced was quantified spectrophotometrically at 450/650 nm. The EC50 value was calculated as the concentration of compound that increased the percentage of formazan production in compound-treated, virus-infected cells to 50% of that produced by compound-free, mock-infected cells. The 50% cytotoxic dose (CC50) was calculated as the concentration of compound that decreased the percentage of formazan produced in compound-treated, mock-infected cells to 50% of that produced by compound-free, mock-infected cells. The therapeutic index (TI) was calculated by dividing the CC50 value by the EC50 value.
(§3) All strains of human rhinovirus (HRV) for use in this assay were purchased from American Type Culture Collection (ATCC), except for HRV serotype-14 (produced from the infectious cDNA clone constructed by Dr. Robert Rueckert, Institute for Molecular Virology, University of Wisconsin, Madison, Wis.). HRV stocks were propagated and viral assays were performed in H1-HeLa cells (ATCC). Cells were grown in minimal essential medium with 10% fetal bovine serum, available from Life Technologies (Gaithersburg, Md.).
(§4) The compounds were tested against control compounds WIN 51711, WIN 52084, and WIN 54954 (obtained from Sterling-Winthrop Pharmaceuticals), Pirodavir (obtained from Janssen Pharmaceuticals), and Pleconaril (prepared according to the method described in Diana et al., J. Med. Chem 1995, vol. 38, 1355). Antiviral data obtained for the test compounds are shown in Tables 1 and 3, where all data are for HRV serotype-14 unless otherwise noted in parentheses.

HRV (1A) = assay: Antirhinoviral H1-HeLa cell culture assay, HRV serotype 1A; assay type: cell-based; conditions: Human rhinovirus sp., H1-HeLa cells, XTT
Experimental: as §1, §2, §3, §4

HRV (89) = assay: Antirhinoviral H1-HeLa cell culture assay, HRV serotype 89; assay type: cell-based, human rhinovirus; conditions: Human rhinovirus sp., H1-HeLa cells, XTT
Procedure, shortened: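 XTT cell-protection assay in H1-HeLa cells infected with rhinovirus or mock-infected, then incubated with compound for two days; formazan was read at 450/650 nm. EC50 is the concentration restoring infected-cell formazan to 50% of compound-free mock-infected cells; CC50 is the concentration halving formazan in mock-infected cells.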

HRV (39) = assay: Antirhinoviral H1-HeLa cell culture assay, HRV serotype 39; assay type: cell-based, human rhinovirus; conditions: Human rhinovirus sp., H1-HeLa cells, XTT
Experimental: as §1, §2, §3
(§5) The compounds were tested against control compounds WIN 51711, WIN 52084, and WIN 54954 (obtained from Sterling-Winthrop Pharmaceuticals), Pirodavir (obtained from Janssen Pharmaceuticals), and Pleconaril (prepared according to the method described in Diana et al., J. Med. Chem 1995, vol. 38, 1355). […]

HRV (12) = assay: Antirhinoviral H1-HeLa cell culture assay, HRV serotype 12; assay type: cell-based; conditions: Human rhinovirus sp., H1-HeLa cells, XTT
Experimental: as §1
as §2, with “value. […]” for “value.”

HRV (13) = assay: Antirhinoviral H1-HeLa cell culture assay, HRV serotype 13; assay type: cell-based, human rhinovirus; conditions: Human rhinovirus sp., H1-HeLa, H1-HeLa cells, XTT
Experimental: as §1, §2, §3, §5

HRV (17) = assay: Antirhinoviral H1-HeLa cell culture assay, HRV serotype 17; assay type: cell-based, human rhinovirus; conditions: Human rhinovirus sp., H1-HeLa cells, XTT
Experimental: as §1, §2, §3, §5

[1] = tested on: Coxsackievirus type A-21 (CAV-21); assay: Anticoxsackieviral cell culture assay, CAV-21; assay type: cell-based; conditions: 48 h, Strain CAV-21, H1-HeLa cells, two days, XTT, read-out: EC50
Experimental: (§6) Coxsackievirus types A-21 (CAV-21) and B3 (CVB-3) were purchased from American Type Culture Collection (ATCC, Rockville, Md.). Virus stocks were propagated and antiviral assays were performed in H1-HeLa cells (ATCC). Cells were grown in minimal essential medium with 10% fetal bovine serum (Life Technologies, Gaithersburg, Md.).
(§7) The ability of compounds to protect cells against either CAV-21 or CVB-3 infection was measured by the XTT dye reduction method. This method is described in Weislow et al., J. Natl. Cancer Inst. 1989, vol. 81, 577-586. H1-HeLa cells were infected with CAV-21 or CVB-3 at a multiplicity of infection (m.o.i.) of 0.025 or 0.075, respectively, or mock-infected with medium only. H1-HeLa cells were plated at 4×10^4 cells per well in a 96-well plate and incubated with appropriate concentrations of the test compound. One day (CVB-3) or two days (CAV-21) later, XTT/PMS was added to test plates and the amount of formazan produced was quantified spectrophotometrically at 450/650 nm. The EC50 was calculated as the concentration of compound that increased the formazan production in compound-treated, virus-infected cells to 50% of that produced by compound-free, uninfected cells. The 50% cytotoxic dose (CC50) was calculated as the concentration of compound that decreased formazan production in compound-treated, uninfected cells to 50% of that produced in compound-free, uninfected cells. The therapeutic index TI) was calculated by dividing the CC50 by the EC50.
(§8) The compounds were tested against control compounds WIN 54954 (obtained from Sterling-Winthrop Pharmaceuticals), Pirodavir (obtained from Janssen Pharmaceuticals), and Pleconaril (prepared according to Diana et al., J. Med. Chem. 1995, 38, 1355).

[2] = tested on: Coxsackievirus type B3 (CVB-3); assay: Anticoxsackieviral cell culture assay, CVB-3; assay type: cell-based; conditions: 24 h, Strain CVB-3, H1-HeLa cells, one day, XTT, read-out: EC50
Experimental: as §6, §7, §8

[3] = tested on: enterovirus type 70 (EV 70); assay: Anti-enteroviral cell culture assay, EV 70; assay type: cell-based; conditions: Enterovirus D, MRC5, 96 h; Strain EV-70; MRC-5 cells; four days; XTT
Experimental: Echovirus type 11 (EV 11) and enterovirus type 70 (EV 70) were purchased from ATCC (Rockville, Md.). Virus stocks were propagated and antiviral assays were performed in MRC-5 cells (ATCC). Cells were grown in minimal essential medium with 10% fetal bovine serum (Life Technologies, Gaithersburg, Md.).
The ability of compounds to protect cells against either EV 11 or EV 70 infection was measured by the XTT dye reduction method (Weislow et al., J. Natl. Cancer Inst. 1989, vol. 81, 577-586). MRC-5 cells were infected with EV 11 or EV 70 at an m.o.i. of 0.003 or 0.004, respectively, or mock-infected with medium only. Infected or uninfected cells were added at 1×10^4 cells per well and incubated with appropriate concentrations of compound. Four days later, XTT/PMS was added to test plates, and the amount of formazan produced was quantified spectrophotometrically at 450/650 nm. The EC50 was calculated as the concentration of compound that increased the formazan production in compound-treated, virus-infected cells to 50% of that produced by compound-free, uninfected cells. The 50% cytotoxic dose (CC50) was calculated as the concentration of compound that decreased formazan production in compound-treated, uninfected cells to 50% of that produced in compound-free, uninfected cells. The therapeutic index (TI) was calculated by dividing the CC50 by the EC50. […]

Compound: CCOC(=O)/C=C/[C@H](C[C@@H]1CCNC1=O)NC(=O)[C@@H](CC(=O)[C@@H](NC(=O)c1cc(C)on1)C(C)C)Cc1ccc(F)cc1 [Compound B-2, Ethyl-3-{(5′-Methylisoxazole-3′-carbonyl)-L-ValΨ(COCH2)-L-(4-F-Phe)-L-((S)-Pyrrol-Ala)}-E-Propenoate]
- EC50 (HRV (2)): 20 nM
- EC50 (HRV (1A)): 20 nM
- EC50 (HRV (89)): 9 nM
- EC50 (HRV (39)): 50 nM
- EC50 (HRV (12)): 50 nM
- EC50 (HRV (13)): 10 nM
- EC50 (HRV (17)): 10 nM
- EC50 [1]: 160 nM
- EC50 [2]: 180 nM
- EC50 [3]: 3 nM
